Experimental data published in ChEMBL document CHEMBL1150883, “Antitumor-promoting naphthoquinones from Catalpa ovata” (J Nat Prod, 1998).

How the values were obtained:
Type in all cases: cell-based
[1] = test system: Raji; assay: Inhibition of 12-O-tetradecanoylphorbol-13-acetate induced EBV-early antigen activation in human Raji cells at 10 molar ratio per 32 pmol/ml TPA by immunofluorescence technique relative to control; parameters: Activity: scale not given: the % may be the effect or the level left; conditions: human gammaherpesvirus 4
[2] = Cytotoxicity against human Raji cells assessed as cell viability at 1000 molar ratio after 48 hrs; conditions: read-out: Activity
[3] = test system: Raji; assay: Inhibition of 12-O-tetradecanoylphorbol-13-acetate induced EBV-early antigen activation in human Raji cells at 1000 molar ratio per 32 pmol/ml TPA by immunofluorescence technique relative to control; parameters: scale not given: the % may be the effect or the level left; conditions: human gammaherpesvirus 4
[4] = Cytotoxicity against human Raji cells assessed as cell viability at 500 molar ratio after 48 hrs; conditions: read-out: Activity

## COc1cccc2c1C(=O)C1=C(CCC(C)(C)O1)C2=O
[1]
  EBV-EA activation remaining (% of TPA control): 100%
[2]
  viability at 48 h, 1000 molar ratio: 70%
[3]
  Activity: 83.8%

## COc1cccc2c1C(=O)C1=C(C(=O)CC(C)(C)O1)C2=O
[1]
  EBV-EA activation remaining (% of TPA control): 100%
[2]
  viability at 48 h, 1000 molar ratio: 70%
[3]
  Activity: 32.7%

## CC1(C)C[C@H](O)C2=C(O1)C(=O)c1c(O)cccc1C2=O
[1]
  EBV-EA activation remaining (% of TPA control): 100%
[2]
  viability at 48 h, 1000 molar ratio: 60%
[3]
  Activity: 36.1%

## CC1(C)C[C@H](O)C2=C(O1)C(=O)c1ccccc1C2=O
[1]
  EBV-EA activation remaining (% of TPA control): 86.7%
[2]
  viability at 48 h, 1000 molar ratio: 60%
[3]
  Activity: 11.2%

## CC1(C)CC=C(C2OC(=O)c3ccccc32)C(=O)O1 (stereo not drawn) [CATALPALACTONE]
[1]
  EBV-EA activation remaining (% of TPA control): 89.5%
[2]
  viability at 48 h, 1000 molar ratio: 70%
[3]
  Activity: 0%

## C=C(C)[C@@H]1OC2=C(C(=O)c3ccccc3C2=O)[C@@H]1O
[1]
  EBV-EA activation remaining (% of TPA control): 88.5%
[2]
  viability at 48 h, 1000 molar ratio: 30%
[3]
  Activity: 0%
[4]
  viability at 48 h, 500 molar ratio: 60%

## CC1(C)C[C@H](O)[C@H]2C(=O)c3ccccc3[C@@H](O)[C@@H]2O1
[1]
  EBV-EA activation remaining (% of TPA control): 93.8%
[2]
  viability at 48 h, 1000 molar ratio: 70%
[3]
  Activity: 0%

## CC1=C(/C=C/C(C)=C/C=C/C(C)=C/C=C/C=C(C)/C=C/C=C(C)/C=C/C2=C(C)CCCC2(C)C)C(C)(C)CCC1 [BETA CAROTENE]
[1]
  EBV-EA activation remaining (% of TPA control): 100%
[2]
  viability at 48 h, 1000 molar ratio: 70%
[3]
  Activity: 8.6%

## C=C(C)[C@H]1CC2=C(O1)C(=O)c1c(OC)cccc1C2=O
[1]
  Activity: 100%
[2]
  viability at 48 h, 1000 molar ratio: 60%
[3]
  Activity: 0%
